# Values of other authors as cited in patent US10253002B2, “Compounds and methods of treating infections” (Neoculi Pty Ltd., priority 2013, dated 2019).
# Experiments:
# Staphylococcus aureus = details: control strain Staphylococcus aureus ATCC 29213; cited from earlier work
# [1] = control strain Enterococcus faecalis ATCC 29212; cited from earlier work
smiles,measurement,setting,value
CC1(C)S[C@@H]2[C@H](NC(=O)[C@H](N)c3ccccc3)C(=O)N2[C@H]1C(=O)O [Ampicillin],Acceptable MIC range for Ampicillin,Staphylococcus aureus,0.5 to 2 µg/mL
same,Acceptable MIC range for Ampicillin,[1],0.5 to 2 µg/mL
